Where a SMILES comes first, the peptide text is derived from it. The star is where a group is joined. Cbz = O=C(OCc1ccccc1)*; CH2F = FC*
Assays:
His-UCHL1 = target: T1, His-UCHL1 (Homo sapiens, UniProt P09936); experiment: Ub binding affinity analysis using biolayer interferometry; conditions: His-UCHL1 preincubated with 1 (2 mM) overnight at room temperature
T1 construct: made in house
T1 sequence (P09936 1-223): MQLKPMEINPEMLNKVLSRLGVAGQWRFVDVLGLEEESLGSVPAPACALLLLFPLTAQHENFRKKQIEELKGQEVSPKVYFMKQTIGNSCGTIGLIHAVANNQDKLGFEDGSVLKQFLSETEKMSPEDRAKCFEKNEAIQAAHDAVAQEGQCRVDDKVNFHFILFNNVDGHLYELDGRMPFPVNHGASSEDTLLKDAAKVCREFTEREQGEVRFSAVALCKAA
Experimental: The concentration of His-UCHL1 was determined by A280 on a NanoDrop system (Thermo Scientific), after which His-UCHL1 was diluted into BLI buffer [1× PBS containing 0.05% (v/v) Tween 20 and 0.1% (w/v) bovine serum albumin (BSA)]. […] The Ni-NTA biosensor was dipped first into BLI buffer (initial baseline, 60 s), then into the His-UCH protein wells (loading step, 300 s), then into BLI buffer alone (baseline step, 60 s), then into the lowest concentration of UbV (association step, 120 s), and then into buffer alone (dissociation step, 100 s). A reference sensor loaded with protein was dipped into wells containing only buffer to adjust for protein-buffer signals. The association-dissociation was repeated with increasing concentrations of UbV. All measurements were taken at 30 °C.
Octet RED384 Data Analysis Software (ForteBio, version 9.0.0.15) was used to collect and analyze the raw data for the association and dissociation curves.

SW1271 cells = experiment: Click reaction and in-gel fluorescence of treated SW1271 cells; type: cell-based; conditions: 100 µM, 4 h
Experimental: Leveraging the alkyne handle, a click reaction was performed with an azide containing sulfo-cyanine5 fluorophore (Cy5) to visualize proteins within the cells that were conjugated to either the fluoromethylketone 34 or the chloromethylketone 37. Cells were pretreated with either analog then harvested and washed to removed unreacted inhibitor. The cells were then lysed and the click reaction was performed on lysates. […] Further evaluation using proteomic profiling is warranted to gain a quantitative understanding on the potential for non-specificity at off-target cysteines.
Cells were treated with 100 µM inhibitor or DMSO for 4 h before being washed, scraped, and lysed in 200 µL of lysis buffer (1× PBS, 1% v/v Triton X-100, 0.1% w/v SDS, 1X HALT) for 30 min on ice with vigorous vortexing every 10 min. Samples were then pelleted at 17,000× g for 10 min before collecting the supernatant and measuring concentration using BCA. Samples were normalized to 2 mg/mL and stored at −80 °C overnight. The following day, samples were thawed. While thawing, a click cocktail was prepared (for each sample, the cocktail consists of: 3 µL of 1.7 mM THPTA in 1:4 tBuOH/DMSO, 1 µL of 50 mM CuSO4 in water, 1 µL of 1.25 mM Cy5-N3 in DMSO, and 1 µL of 50 mM TCEP in water freshly prepared). […] The samples were then analyzed by SDS-PAGE and imaged on a Licor Odyssey and subsequently Coomassie stained.

Compound: COC(=O)CC[C@H](NC(=O)[C@H](C)NC(=O)[C@@H](NC(=O)OCc1ccccc1)C(C)C)C(=O)CF [Cpd 1, benzyloxycarbonyl-Val-Ala-Glu(γ-methoxy)-fluoromethylketone] (Cbz-Val-Ala-Glu(OMe)-CH2F)
- effect of conjugated 1 on UCHL1:Ub interaction (His-UCHL1): completely abrogated the ability of UCHL1 to interact with Ub

Compound: C#Cc1ccc(COC(=O)N[C@H](C(=O)N[C@@H](C)C(=O)N[C@@H](CCC(=O)OC)C(=O)CF)C(C)C)cc1 [Cpd 34]
- proteins labelled in SW1271 cells (Cy5 click, in-gel fluorescence) (SW1271 cells): high selectivity in cells

— publication PMC7956625, “Optimization and Anti-Cancer Properties of Fluoromethylketones as Covalent Inhibitors for Ubiquitin C-Terminal Hydrolase L1” (Molecules, 2021)
